Assay results reported in ChEMBL document CHEMBL1201862, “PubChem BioAssay data set” (2004).
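Protocol summary: plate cells (96-well), add compound at 5 concentrations, incubate 48 h, interpolate endpoints linearly. GI50 marks 50% less growth.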 The source made the active and inactive calls. Rule as the data show it: active = GI50 up to about 1.1 µM and inactive = higher.

Experiments:
Test in all cases: DTP human tumour cell line panel, 48 h
SF-268 = system: SF-268
A549 = system: A549
CCRF-CEM = system: CCRF-CEM
SW-620 = system: SW-620
EKVX = system: EKVX
HOP-92 = system: HOP-92
SK-MEL-5 = system: SK-MEL-5
A498 = system: A498
DU-145 = system: DU-145
MCF7 = system: MCF7
M14 = system: M14
HCT-15 = system: HCT-15
COLO 205 = system: COLO 205
T47D = system: T47D
HT-29 = system: HT-29
UACC-257 = system: UACC-257
SF-539 = system: SF-539
SK-MEL-28 = system: SK-MEL-28
Hs-578T = system: Hs-578T
PC-3 = system: PC-3

Structure (SMILES)	GI50 (SF-268)	GI50 (A549)	GI50 (CCRF-CEM)	GI50 (SW-620)	GI50 (EKVX)	GI50 (HOP-92)	GI50 (SK-MEL-5)	GI50 (A498)	GI50 (DU-145)	GI50 (MCF7)	GI50 (M14)	GI50 (HCT-15) [µM]	GI50 (COLO 205)	GI50 (T47D)	GI50 (HT-29)	GI50 (UACC-257)	GI50 (SF-539)	GI50 (SK-MEL-28)	GI50 (Hs-578T)	GI50 (PC-3)
CC1(C)Oc2ccc3ccc(=O)oc3c2C(O)C1O (stereo not given)	40.6 µM (inactive)	32.2 µM (inactive)	31.7 µM (inactive)	61.1 µM (inactive)	48.1 µM (inactive)	57.8 µM (inactive)	15.9 µM (inactive)	> 100 µM (inactive)	55.8 µM (inactive)	33.9 µM (inactive)	36.6 µM (inactive)	41.9	21.8 µM (inactive)	35.3 µM (inactive)	28.1 µM (inactive)	29.4 µM (inactive)	22.9 µM (inactive)	37.5 µM (inactive)	52.1 µM (inactive)	31.6 µM (inactive)
CN(C)Cc1cc(/N=N/c2ccc(Cl)cc2)ccc1O	14.8 µM (inactive)	16 µM (inactive)	17.8 µM (inactive)	16.4 µM (inactive)	18.3 µM (inactive)	4.46 µM (inactive)	14.4 µM (inactive)	16.4 µM (inactive)	25.1 µM (inactive)	17.4 µM (inactive)	9.75 µM (inactive)	15.1	3.81 µM (inactive)	12.4 µM (inactive)	12.6 µM (inactive)	18.7 µM (inactive)	18.1 µM (inactive)	16 µM (inactive)	15 µM (inactive)	14.7 µM (inactive)
O=C(/C=C/c1cccc(Oc2ccccc2)c1)NCc1ccc(C(=O)NCc2ccccc2)cc1	> 100 µM (inactive)	> 100 µM (inactive)	> 100 µM (inactive)	> 100 µM (inactive)	> 100 µM (inactive)	37.8 µM (inactive)	> 100 µM (inactive)	51.5 µM (inactive)	> 100 µM (inactive)	> 100 µM (inactive)	> 100 µM (inactive)	> 100	> 100 µM (inactive)	> 100 µM (inactive)	17.3 µM (inactive)	> 100 µM (inactive)	0.865 µM (active)	> 100 µM (inactive)	> 100 µM (inactive)	> 100 µM (inactive)
CC(Cc1cccc2c1Nc1ccccc1S2)N(C)CCO (stereo not given)	> 100 µM (inactive)	> 100 µM (inactive)	> 100 µM (inactive)	> 100 µM (inactive)	> 100 µM (inactive)	> 100 µM (inactive)	> 100 µM (inactive)	26.4 µM (inactive)	> 100 µM (inactive)	> 100 µM (inactive)	> 100 µM (inactive)	> 100	> 100 µM (inactive)	> 100 µM (inactive)	> 100 µM (inactive)	> 100 µM (inactive)	> 100 µM (inactive)	> 100 µM (inactive)	> 100 µM (inactive)	> 100 µM (inactive)
CC(=O)OC1=C(c2ccccc2)S(=O)(=O)c2ccccc21	> 100 µM (inactive)	> 100 µM (inactive)	96.4 µM (inactive)	> 100 µM (inactive)	> 100 µM (inactive)	> 100 µM (inactive)	> 100 µM (inactive)	> 100 µM (inactive)	> 100 µM (inactive)	> 100 µM (inactive)	> 100 µM (inactive)	> 100	> 100 µM (inactive)	> 100 µM (inactive)	> 100 µM (inactive)	> 100 µM (inactive)	> 100 µM (inactive)	> 100 µM (inactive)	> 100 µM (inactive)	> 100 µM (inactive)
CCOc1cc(NC(C)=O)ccc1C(=O)NNC(=O)c1ccccc1OC(C)=O	7.24 µM (inactive)	6.76 µM (inactive)	4.22 µM (inactive)	4.01 µM (inactive)	5.18 µM (inactive)	29.9 µM (inactive)	5.78 µM (inactive)	16.1 µM (inactive)	8.28 µM (inactive)	6.07 µM (inactive)	7.18 µM (inactive)	4.37	21.5 µM (inactive)	8.55 µM (inactive)	34 µM (inactive)	4.92 µM (inactive)	12.5 µM (inactive)	21.5 µM (inactive)	> 52 µM (inactive)	11.1 µM (inactive)
[N-]=[N+]=Nc1c(Cc2ccccc2)c(Cl)nc2ccccc12	33.6 µM (inactive)	36.3 µM (inactive)	39.8 µM (inactive)	33.4 µM (inactive)	27.2 µM (inactive)	20.2 µM (inactive)	15.4 µM (inactive)	26.2 µM (inactive)	42.8 µM (inactive)	21.3 µM (inactive)	20.8 µM (inactive)	35.2	15.1 µM (inactive)	32.6 µM (inactive)	31.6 µM (inactive)	33.5 µM (inactive)	21.7 µM (inactive)	45.5 µM (inactive)	21.3 µM (inactive)	25.6 µM (inactive)
O=C(O)C1C2C=CC(C2)C1c1ccccc1 (stereo not given)	> 100 µM (inactive)	> 100 µM (inactive)	> 100 µM (inactive)	> 100 µM (inactive)	> 100 µM (inactive)	> 100 µM (inactive)	> 100 µM (inactive)	> 100 µM (inactive)	> 100 µM (inactive)	> 100 µM (inactive)	> 100 µM (inactive)	> 100	> 100 µM (inactive)	> 100 µM (inactive)	> 100 µM (inactive)	> 100 µM (inactive)	> 100 µM (inactive)	> 100 µM (inactive)	> 100 µM (inactive)	> 100 µM (inactive)
O=C(CSc1nc2ccc(I)cc2c(=O)n1Cc1ccccc1)NNC(=O)c1ccccc1	6.79 µM (inactive)	11.9 µM (inactive)	49.7 µM (inactive)	36.1 µM (inactive)	4.06 µM (inactive)	8.24 µM (inactive)	10.3 µM (inactive)	11.6 µM (inactive)	13.9 µM (inactive)	9.82 µM (inactive)	29.3 µM (inactive)	16.5	18.9 µM (inactive)	10.6 µM (inactive)	19.8 µM (inactive)	18 µM (inactive)	2.92 µM (inactive)	15.4 µM (inactive)	2.85 µM (inactive)	10.7 µM (inactive)
CN(C)c1ccc(/C=c2/c3ccccc3n3nc4ccccc4c23)cc1	36.3 µM (inactive)	16.3 µM (inactive)	7.98 µM (inactive)	12.8 µM (inactive)	44.3 µM (inactive)	12.8 µM (inactive)	8.73 µM (inactive)	4.3 µM (inactive)	75.5 µM (inactive)	13.8 µM (inactive)	21.7 µM (inactive)	8.32	9.64 µM (inactive)	6.47 µM (inactive)	13.7 µM (inactive)	56 µM (inactive)	24.4 µM (inactive)	34.9 µM (inactive)	35.6 µM (inactive)	8.04 µM (inactive)
Nc1cccc(C2CCCc3c2[nH]c2ccccc32)c1 (stereo not given)	17.2 µM (inactive)	17.5 µM (inactive)	15.3 µM (inactive)	17.4 µM (inactive)	18.5 µM (inactive)	16.9 µM (inactive)	17.4 µM (inactive)	15 µM (inactive)	27 µM (inactive)	21.8 µM (inactive)	22.3 µM (inactive)	8.28	19.8 µM (inactive)	12.1 µM (inactive)	14.6 µM (inactive)	23.9 µM (inactive)	20.3 µM (inactive)	26.5 µM (inactive)	16 µM (inactive)	16.1 µM (inactive)
COC(=O)/C=C\C(C#N)(C#N)/N=C/c1ccccc1	4.95 µM (inactive)	17.8 µM (inactive)	0.337 µM (active)	1.46 µM (inactive)	12.8 µM (inactive)	1.55 µM (inactive)	13.5 µM (inactive)	18.7 µM (inactive)	17.1 µM (inactive)	2.09 µM (inactive)	2.25 µM (inactive)	2.92	1.62 µM (inactive)	1.72 µM (inactive)	4.49 µM (inactive)	5.36 µM (inactive)	3.78 µM (inactive)	6 µM (inactive)	12.2 µM (inactive)	5.94 µM (inactive)
NC(Cc1ccccc1)(C(=O)O)C(=O)O	> 100 µM (inactive)	> 100 µM (inactive)	> 100 µM (inactive)	> 100 µM (inactive)	> 100 µM (inactive)	> 100 µM (inactive)	> 100 µM (inactive)	> 100 µM (inactive)	> 100 µM (inactive)	> 100 µM (inactive)	> 100 µM (inactive)	> 100	> 100 µM (inactive)	> 100 µM (inactive)	> 100 µM (inactive)	> 100 µM (inactive)	> 100 µM (inactive)	> 100 µM (inactive)	> 100 µM (inactive)	> 100 µM (inactive)
O=C(O)CCCc1ccc(N(CCCl)CCCl)cc1 [CHLORAMBUCIL]	34.9 µM (inactive)	61.7 µM (inactive)	6.31 µM (inactive)	87.9 µM (inactive)	163 µM (inactive)	63.7 µM (inactive)	88.5 µM (inactive)	125 µM (inactive)	61.4 µM (inactive)	32.8 µM (inactive)	62.7 µM (inactive)	92.7	115 µM (inactive)	55 µM (inactive)	130 µM (inactive)	93.5 µM (inactive)	22.9 µM (inactive)	106 µM (inactive)	189 µM (inactive)	99.3 µM (inactive)
